Assay results: patent US10196609B2, “Composition for promoting cardiac differentiation of pluripotent stem cell comprising EGFR inhibitor” (Kyoto University, priority 2013, dated 2019)

Assays:
Monkey ES cells = test: Cardiac differentiation of monkey ES cells (α-MHC promoter-GFP) in adhesion culture, GFP fluorescence by HCS; format: cell-based; details: for effect of promoting cardiac differentiation (GFP fluorescence): added Days 4-8 together with KYO2111 (10 µM), AG1478 20 μM, read at Day 10, FIGS. 1-3
Protocol: At Day 10 of culture, compounds that enhanced GFP fluorescence were identified by measuring GFP fluorescence with HCS (high contents screening) system (Olympus IX81 inverted microscope and Molecular device/MetaMorph imaging system).
During Days 4-8 of culture KYO2111 (10 μM) and PP3 (3 μM, 10 μM, 30 μM, or 100 μM) were added.

human ES cells (KhES-3) = test: Cardiac differentiation of human ES cells in floating culture, percentage of cTnT-positive cardiomyocytes by flow cytometry; format: cell-based; details: for effect to promote cardiac differentiation in combination with XAV939 only: XAV+AG1478 or gefitinib; for effect to promote cardiac differentiation in combination with XAV939 only / effect to promote cardiac differentiation by itself: human ES or iPS cells, cell line not stated, FIG. 8; for effect to promote cardiac differentiation by itself: without addition of KYO2111 and XAV939
Protocol: (§1) Human ES cells or iPS cells subcultured with mouse feeder cells were collected. Colonies of the human ES cells or iPS cells (3-10×10^6 cells/well) were plated on 6-well plates of Ultra-low culture dish (CORNING 3261), and cultured in an IMDM-based medium having a defined composition (IMDM (Sigma) containing 1% MEM non-essential amino acid solution (Sigma), 1% penicillin-streptomycin (Gibco), 2 mM L-glutamine (Sigma), 0.5 mM L-carnitine (Sigma), 0.001% 2-mercaptoethanol (Gibco), and 0.4% human serum albumin (Sigma)) in floating culture for 30 days (FIG. 5). During Days 0-2 of culture (for 2 days), CHIR99021 (Axon) (4 μM) and BIO (Calbiochem) (1 μM) were added, and during Days 3-9 of culture (for 6 days) KYO2111 (10 μM) and XAV939 (1 μM) were added. […] The cardiac differentiation was evaluated by analyzing the percentage of cardiomyocytes with flow cytometry using an antibody against cardiac troponin T (cTnT), a specific marker of cardiac muscle at Day 30 of culture.

[1] = tested on: human iPS cells (IMR90-1); test: Cardiac differentiation of human iPS cells in floating culture, percentage of cTnT-positive cardiomyocytes by flow cytometry; format: cell-based; details: 5-20 μM added Days 2-9 of culture, FIG. 7
Protocol: as §1

Human iPS cells (253G1) = test: Cardiac differentiation of human iPS cells in feeder-free sphere culture, cTnT flow cytometry; format: cell-based; details: 10 μM Days 3-9 in addition to KYO2111 (10 μM) and XAV939 (1 μM); Day 30; increased from 34% without EGFR inhibitor; FIG. 9
Protocol: Human iPS cells (253G1) were cultured in sphere culture without feeder cells (feeder-free sphere culture). In detail, 253G1 cells subcultured with mouse feeder cells were collected, the cell cluster was passed through […] (CellTrics, PARTEC04004-2327) to give uniform cell clusters having the size of 80-120 μm, the cells were plated in 6-well plates of Ultra-low culture dish (CORNING 3261) and cultured in mTeSR1 medium (Stem Cell Technology 05850) containing 3% methylcellulose (R&D, HSC001) in floating culture until the size of the colonies of the iPS cells arrived at about 200-300 μm. The cells were subcultured more than 20 times by repeating the steps of this feeder-free sphere culture. The medium was replaced with an IMDM-based medium having a defined composition (IMDM (Sigma) containing 1% MEM non-essential amino acid solution (Sigma), 1% penicillin-streptomycin (Gibco), 2 mM L-glutamine (Sigma), 0.5 mM L-carnitine (Sigma), 0.001% 2-mercaptoethanol (Gibco), and 0.4% human serum albumin (Sigma)) and the cells were cultured in floating culture for 30 days (FIG. 5). […] The cardiac differentiation was evaluated by analyzing the percentage of cardiomyocytes with flow cytometry using an antibody against cardiac troponin T (cTnT), a specific marker of cardiac muscle at Day 30 of culture.

Src kinase = Src kinase (Homo sapiens, UniProt P12931); details: cited from earlier work
[2] = Effect to promote cardiac differentiation by the methods of WO2012/026491; format: cell-based; details: methods described in the Examples of WO2012/026491
Description: The effect of SO3031 (KY01-I), SO2031 (KY02-I), SO3042 (KY03-I), and SO2077 to promote cardiac differentiation was confirmed by the methods described in the Examples of WO2012/026491.

Src kinase, sequence (P12931 whole entry): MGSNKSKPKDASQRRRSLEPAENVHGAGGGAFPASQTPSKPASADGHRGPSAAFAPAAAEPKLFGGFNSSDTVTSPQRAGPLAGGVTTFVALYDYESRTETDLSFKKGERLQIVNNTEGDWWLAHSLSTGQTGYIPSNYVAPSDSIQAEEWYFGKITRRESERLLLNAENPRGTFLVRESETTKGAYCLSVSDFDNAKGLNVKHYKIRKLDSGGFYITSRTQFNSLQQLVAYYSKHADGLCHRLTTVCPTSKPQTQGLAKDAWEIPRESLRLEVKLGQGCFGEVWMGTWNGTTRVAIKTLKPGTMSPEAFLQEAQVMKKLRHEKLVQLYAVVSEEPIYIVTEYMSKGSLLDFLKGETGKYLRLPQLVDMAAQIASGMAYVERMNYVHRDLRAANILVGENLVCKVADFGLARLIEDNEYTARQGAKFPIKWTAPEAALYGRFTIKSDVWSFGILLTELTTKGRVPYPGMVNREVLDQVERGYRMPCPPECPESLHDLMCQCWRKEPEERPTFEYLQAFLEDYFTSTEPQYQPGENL

COc1cc2ncnc(Nc3cccc(Cl)c3)c2cc1OC [AG1478]
synergistic promotion of cardiac differentiation with KYO2111 (Monkey ES cells; Wnt signaling inhibitor KYO2111 added together, FIG. 4): synergistically promoted cardiac differentiation
synergistic promotion of cardiac differentiation with XAV939 (Monkey ES cells; Wnt signaling inhibitor XAV939 added together, FIG. 4): synergistically promoted cardiac differentiation
effect of promoting cardiac differentiation (GFP fluorescence) (Monkey ES cells): had the effect of promoting cardiac differentiation
percentage of cardiomyocytes (human ES cells (KhES-3); 20 μM, Days 2-9, stated for human ES (KhES-3) and iPS (IMR90-1) cells together, Day 30, FIG. 7): 92-95%
cardiac differentiation efficiency (human ES cells (KhES-3); 5-20 μM added Days 2-9 of culture, KhES-3, FIG. 7): the cardiac differentiation efficiency was increased
effect to promote cardiac differentiation in combination with XAV939 only (human ES cells (KhES-3)): produced an effect to promote cardiac differentiation
effect to promote cardiac differentiation by itself (human ES cells (KhES-3)): produced an effect to promote cardiac differentiation
cardiac differentiation efficiency [1]: the cardiac differentiation efficiency was increased
percentage of cardiomyocytes (Human iPS cells (253G1)): about 50%

Nc1ncnc2c1cnn2-c1ccccc1 [PP3]
enhancement of the effect of KYO2111 to promote cardiac differentiation (Monkey ES cells; PP3 3, 10, 30 or 100 μM with KYO2111 (10 μM), Days 4-8, FIG. 10): enhance the effect of KYO2111 to promote cardiac differentiation
inhibitory effect on Src kinase (Src kinase): no inhibitory effect

COc1ccc(CCC(=O)Nc2nc3ccc(I)cc3s2)cc1OC [SO2031, 2-(3-(3,4-dimethoxyphenyl)propanamide)-6-iodobenzothiazole]
effect to promote cardiac differentiation [2]: confirmed

CCCOc1ccc(CCC(=O)Nc2nc3ccc(I)cc3s2)cc1OC [SO2077, 2-(3-(3-methoxy-4-propoxyphenyl)propanamide)-6-iodobenzothiazole]
effect to promote cardiac differentiation [2]: confirmed

COc1ccc(CC(=O)Nc2nc3ccc(I)cc3s2)cc1OC [SO3031, 2-(2-(3,4-dimethoxyphenyl)acetamide)-6-iodobenzothiazole]
effect to promote cardiac differentiation [2]: confirmed

COc1ccc(CCCC(=O)Nc2nc3ccc(I)cc3s2)cc1OC [SO3042, 2-(4-(3,4-dimethoxyphenyl)butanamide)-6-iodobenzothiazole]
effect to promote cardiac differentiation [2]: confirmed

COc1cc2ncnc(Nc3ccc(F)c(Cl)c3)c2cc1OCCCN1CCOCC1 [gefitinib]
effect of promoting cardiac differentiation (GFP fluorescence) (Monkey ES cells): have the effect of promoting cardiac differentiation
promotion of cardiac differentiation (human ES cells (KhES-3); 10 μM added Days 0-2 of culture, with CHIR99021+BIO Days 0-2, KYO2111+XAV939 Days 3-9, Day 30, FIG. 6): did not promote cardiac differentiation
effect to promote cardiac differentiation in combination with XAV939 only (human ES cells (KhES-3)): produced an effect to promote cardiac differentiation
effect to promote cardiac differentiation by itself (human ES cells (KhES-3)): produced an effect to promote cardiac differentiation
percentage of cardiomyocytes (Human iPS cells (253G1)): about 50%
